Molecules are shown by their SMILES.

The source of these data is US20240381871A1, “5-HALOALKOXY-PYRIMIDINE COMPOUNDS AS HERBICIDES” (SYNGENTA CROP PROTECTION AG, priority 2020, published 2024).

Common to all, as to format: in vivo
One test has as its system Ipomea hederacea (IPOHE). Nature of the test: Comparative post-emergence test, weed control. The following applies: Ipomoea hederacea, 336 h, after 14 days, read-out: IPOHE damage (100=total damage to plant; 0=no damage). On the procedure:
(§1) Seeds of test species were sown in standard soil in pots. After cultivation for 10 days (post-emergence) under controlled conditions in a glasshouse (at 24/16° C., day/night; 14 hours light; 65% humidity), the plants were sprayed with an aqueous spray solution derived from the formulation of the technical active ingredient in 0.6 ml acetone and 45 ml formulation solution containing 10.6% Emulsogen EL (Registry number 61791-12-6), 42.2% N-methyl pyrrolidone, 42.2% dipropylene glycol monomethyl ether (CAS RN 34590-94-8) and 0.2% X-77 (CAS RN 11097-66-8). The test plants were then grown in a glasshouse under controlled conditions in a glasshouse (at 24/16° C., day/night; 14 hours light; 65% humidity) and watered twice daily. After 14 days, the test was evaluated (100=total damage to plant; 0=no damage to plant). • Weeds: Ipomea hederacea (IPOHE) • Crops: Zea mays (ZEAMX)

The next test concerns Zea mays (ZEAMX). Nature of the test: Comparative post-emergence test, crop damage. Conditions: 336 h, after 14 days, read-out: ZEAMX damage (100=total damage to plant; 0=no damage). On the procedure: as §1
In test [1] the test system is Ipomoea hederacea (IPOHE). Nature of the test: Pre-emergence herbicidal glasshouse test. The following applies: rate 250, evaluated after 13 days, the values are:
As for the experimental part:
(§2) Seeds of a variety of test species are sown in standard soil in pots, Amaranthus retoflexus (AMARE), Abutilon theophrasti (ABUTH), Setaria faberi (SETFA), Echinochloa crus-galli (ECHCG) and Ipomoea hederacea (IPOHE). After cultivation for one day (pre-emergence) or after 8 days cultivation (post-emergence) under controlled conditions in a glasshouse (at 24/16° C., day/night; 14 hours light; 65% humidity), the plants are sprayed with an aqueous spray solution derived from the formulation of the technical active ingredient in acetone/water (50:50) solution containing 0.5% Tween 20 (polyoxyethelyene sorbitan monolaurate, CAS RN 9005-64-5). Compounds are applied at 1000 g/ha unless otherwise stated. The test plants are then grown in a glasshouse under controlled conditions in a glasshouse (at 24/16° C., day/night; 14 hours light; 65% humidity) and watered twice daily. After 13 days for pre and post-emergence, the test is evaluated for the percentage damage caused to the plant.

The test system of test [2] is Setaria faberi (SETFA). Nature of the test: Pre-emergence herbicidal glasshouse test. The following applies: rate 250, evaluated after 13 days, the values are: phytotoxicity score (1-5). As for the experimental part:
as §2

The subject of test [3] is Amaranthus retoflexus (AMARE). Nature of the test: Pre-emergence herbicidal glasshouse test. The following applies: rate 250, evaluated after 13 days, the values are:
As for the experimental part: as §2

For test [4], the system named is Abutilon theophrasti (ABUTH). Put plainly: Pre-emergence herbicidal glasshouse test. Conditions: rate 250, evaluated after 13 days, the values are:
On the procedure:
as §2

Test [5] concerns Ipomoea hederacea (IPOHE). Put plainly: Post-emergence herbicidal glasshouse test. Conditions: rate 250, evaluated after 13 days, the values are: phytotoxicity score (1-5 scale). As for the experimental part: as §2
The test system of test [6] is Setaria faberi (SETFA). Put plainly: Post-emergence herbicidal glasshouse test. The following applies: rate 250, evaluated after 13 days, the values are:
On the procedure: as §2

Test [7] deals with Amaranthus retoflexus (AMARE). Put plainly: Post-emergence herbicidal glasshouse test. Conditions: rate 250, evaluated after 13 days, the values are: phytotoxicity score (1-5 scale). As for the experimental part:
as §2

Test [8] concerns Abutilon theophrasti (ABUTH). Nature of the test: Post-emergence herbicidal glasshouse test. The following applies: rate 250, evaluated after 13 days, the values are:
On the procedure:
as §2

Test [9] has as its system Echinochloa crus-galli (ECHCG). Put plainly: Pre-emergence herbicidal glasshouse test. The following applies: rate 250, evaluated after 13 days, the values are: phytotoxicity score (1-5). As for the experimental part: as §2
The test system of test [10] is Echinochloa crus-galli (ECHCG). Nature of the test: Post-emergence herbicidal glasshouse test. Conditions: rate 250, evaluated after 13 days, the values are: phytotoxicity score (1-5 scale). As for the experimental part: as §2

On to `COc1cnc(Oc2cccc(F)c2-c2cc(C(F)F)no2)nc1`, for which, in the test on Ipomea hederacea (IPOHE), the pest or weed control at 2 g/ha was 10%, the pest or weed control at 8 g/ha is 10%, the pest or weed control at 60 g/ha is 20% and the pest or weed control at 125 g/ha was 50%. Besides, in the test with Ipomea hederacea (IPOHE), the pest or weed control at 250 g/ha turned out to be 60% and the pest or weed control at 500 g/ha was 70%. For the same compound, in the test with Zea mays (ZEAMX), the plant injury at 2 g/ha was determined as 0%, the plant injury at 8 g/ha came to 0%, the plant injury at 60 g/ha was determined as 10% and the plant injury at 125 g/ha was found to be 10%. In the test on Zea mays (ZEAMX), the plant injury at 250 g/ha is 10% and the plant injury at 500 g/ha is 40%.
Regarding `COc1cnc(Oc2cccc(Cl)c2-c2cc(C(F)F)no2)nc1`, in the test with Ipomea hederacea (IPOHE), the pest or weed control at 2 g/ha was found to be 20%, the pest or weed control at 8 g/ha was determined as 30%, the pest or weed control at 60 g/ha is 20% and the pest or weed control at 125 g/ha is 50%. For the same compound, in the test on Ipomea hederacea (IPOHE), the pest or weed control at 250 g/ha is 60%. In addition, in the test on Zea mays (ZEAMX), the plant injury at 2 g/ha amounted to 0%, the plant injury at 8 g/ha is 0%, the plant injury at 60 g/ha amounted to 10% and the plant injury at 125 g/ha is 20%. In addition, the plant injury at 250 g/ha in the test on Zea mays (ZEAMX) was 30%.
In the case of `COc1cnc(Oc2cccc(Br)c2-c2cc(C(F)F)no2)nc1`, in the test on Ipomea hederacea (IPOHE), the pest or weed control at 2 g/ha was 10%, the pest or weed control at 8 g/ha is 30%, the pest or weed control at 60 g/ha is 50% and the pest or weed control at 125 g/ha amounted to 50%. Moreover, in the test with Ipomea hederacea (IPOHE), the pest or weed control at 250 g/ha is 60%. Also, in the test on Zea mays (ZEAMX), the plant injury at 2 g/ha came to 0%, the plant injury at 8 g/ha is 0%, the plant injury at 60 g/ha was determined as 0% and the plant injury at 125 g/ha came out at 10%. Besides, the plant injury at 250 g/ha with Zea mays (ZEAMX) amounted to 30%.
With `COc1cnc(Oc2cccc(C#N)c2-c2cc(C(F)F)no2)nc1`, in the test on Ipomea hederacea (IPOHE), the pest or weed control at 2 g/ha came to 10%, the pest or weed control at 8 g/ha came out at 30%, the pest or weed control at 60 g/ha stood at 40% and the pest or weed control at 125 g/ha was 50%. In addition, in the test with Ipomea hederacea (IPOHE), the pest or weed control at 250 g/ha is 50% and the pest or weed control at 500 g/ha was 60%. In the test with Zea mays (ZEAMX), the plant injury at 2 g/ha turned out to be 0%, the plant injury at 8 g/ha came out at 0%, the plant injury at 60 g/ha turned out to be 0% and the plant injury at 125 g/ha stood at 10%. In the test with Zea mays (ZEAMX), the plant injury at 250 g/ha is 10% and the plant injury at 500 g/ha was determined as 40%.
For the compound `Fc1cccc(Oc2ncc(OC(F)F)cn2)c1-c1cc(C(F)F)no1` [Compound 1.001, 5-[2-[5-(difluoromethoxy)pyrimidin-2-yl]oxy-6-fluoro-phenyl]-3-(difluoromethyl)isoxazole], in the test on Ipomea hederacea (IPOHE), the pest or weed control at 2 g/ha is 30%, the pest or weed control at 8 g/ha turned out to be 20%, the pest or weed control at 60 g/ha was 70% and the pest or weed control at 125 g/ha amounted to 80%. In the test with Ipomea hederacea (IPOHE), the pest or weed control at 250 g/ha is 90% and the pest or weed control at 500 g/ha came out at 100%. This compound gave a Pre-emergence activity IPOHE (% phytotoxicity) in [1] of 5. Also, the Pre-emergence activity SETFA (% phytotoxicity) in the test on Setaria faberi (SETFA) [2] came out at 5. Besides, the Pre-emergence activity AMARE (% phytotoxicity) in [3] was found to be 5. This compound also had a Pre-emergence activity ABUTH (% phytotoxicity) in test [4] of 5. In addition, in the test on Zea mays (ZEAMX), the plant injury at 8 g/ha was 0%, the plant injury at 60 g/ha stood at 20%, the plant injury at 125 g/ha was 10% and the plant injury at 250 g/ha came to 20%. Also, the plant injury at 500 g/ha with Zea mays (ZEAMX) is 40%. This compound returned a Post-emergence activity IPOHE (% phytotoxicity) in [5] of 3. The Post-emergence activity SETFA (% phytotoxicity) in the test with Setaria faberi (SETFA) [6] was found to be 4. In addition, the Post-emergence activity AMARE (% phytotoxicity) in test [7] was determined as 4. In [8], the Post-emergence activity ABUTH (% phytotoxicity) was determined as 3.
In the case of `Fc1cccc(Oc2ncc(OC(F)(F)F)cn2)c1-c1cc(C(F)F)no1` [Compound 1.002, 3-(difluoromethyl)-5-[2-fluoro-6-[5-(trifluoromethoxy)pyrimidin-2-yl]oxy-phenyl]isoxazole], the Pre-emergence activity IPOHE (% phytotoxicity) in [1] worked out at 4. In addition, the Pre-emergence activity SETFA (% phytotoxicity) with Setaria faberi (SETFA) [2] came to 5. Moreover, in test [3], the Pre-emergence activity AMARE (% phytotoxicity) stood at 5. In addition, the Pre-emergence activity ECHCG (% phytotoxicity) in test [9] was found to be 4. Further, the Pre-emergence activity ABUTH (% phytotoxicity) in test [4] was 5. In test [5], the Post-emergence activity IPOHE (% phytotoxicity) is 3. In addition, in the test with Setaria faberi (SETFA) [6], the Post-emergence activity SETFA (% phytotoxicity) was 4. In addition, in test [7], the Post-emergence activity AMARE (% phytotoxicity) turned out to be 4. Moreover, the Post-emergence activity ECHCG (% phytotoxicity) in test [10] stood at 4. The same compound registered a Post-emergence activity ABUTH (% phytotoxicity) in test [8] of 4.
Take `FC(F)Oc1cnc(Oc2cccc(Cl)c2CCCC(F)(F)F)nc1` [Compound 1.023, 2-[3-chloro-2-(4,4,4-trifluorobutyl)phenoxy]-5-(difluoromethoxy)pyrimidine]: in test [1], the Pre-emergence activity IPOHE (% phytotoxicity) is 1. The compound also gave a Pre-emergence activity SETFA (% phytotoxicity) with Setaria faberi (SETFA) [2] of 1. In addition, in test [3], the Pre-emergence activity AMARE (% phytotoxicity) is 1. In addition, the Pre-emergence activity ECHCG (% phytotoxicity) in test [9] was found to be 1. In addition, the Pre-emergence activity ABUTH (% phytotoxicity) in test [4] was 1. Also, the Post-emergence activity IPOHE (% phytotoxicity) in [5] came to 1. In the test with Setaria faberi (SETFA) [6], this compound returned a Post-emergence activity SETFA (% phytotoxicity) of 1. In test [7], this compound came in with a Post-emergence activity AMARE (% phytotoxicity) of 1. In test [10], this compound displayed a Post-emergence activity ECHCG (% phytotoxicity) of 1. Besides, the Post-emergence activity ABUTH (% phytotoxicity) in test [8] is 1.
Consider `FC(F)Oc1cnc(Oc2cccc(Br)c2CCCC(F)(F)F)nc1` [Compound 1.024], for which, in test [1], the Pre-emergence activity IPOHE (% phytotoxicity) was 1. Also, the Pre-emergence activity SETFA (% phytotoxicity) with Setaria faberi (SETFA) [2] came to 1. Also, the Pre-emergence activity AMARE (% phytotoxicity) in test [3] was determined as 2. Also, in [9], the Pre-emergence activity ECHCG (% phytotoxicity) was 1. For the same compound, the Pre-emergence activity ABUTH (% phytotoxicity) in [4] was determined as 1. The Post-emergence activity IPOHE (% phytotoxicity) in [5] was determined as 1. The same compound had a Post-emergence activity SETFA (% phytotoxicity) in the test with Setaria faberi (SETFA) [6] of 1. The same compound showed a Post-emergence activity AMARE (% phytotoxicity) in test [7] of 2. In test [10], this compound came in with a Post-emergence activity ECHCG (% phytotoxicity) of 1. Besides, the Post-emergence activity ABUTH (% phytotoxicity) in test [8] was 1.
Take `COc1cnc(Oc2ccccc2-c2cc(C(F)F)no2)nc1` [Compound 213]: in the test on Ipomea hederacea (IPOHE), the pest or weed control at 2 g/ha is 0%, the pest or weed control at 8 g/ha is 10%, the pest or weed control at 60 g/ha was 20% and the pest or weed control at 125 g/ha came to 30%. In the test with Ipomea hederacea (IPOHE), the pest or weed control at 250 g/ha came out at 40% and the pest or weed control at 500 g/ha turned out to be 50%. Moreover, in the test on Zea mays (ZEAMX), the plant injury at 2 g/ha was 0%, the plant injury at 8 g/ha stood at 0%, the plant injury at 60 g/ha was found to be 0% and the plant injury at 125 g/ha came to 0%. Also, in the test with Zea mays (ZEAMX), the plant injury at 250 g/ha was found to be 0% and the plant injury at 500 g/ha was determined as 20%.
